Holding throughout (assay type): cell-based, human
For experiment [1], the system named is hESC-derived EBs. Description: Differentiation towards RPE (pigmented) cells within EBs. On the procedure:
(§1) Human ES cells were removed from the feeders by treatment with dispase (10 mg/ml; Gibco), and/or type IV collagenase (1 mg/ml; Gibco). The clusters of undifferentiated cells that were obtained were further triturated into smaller clumps within PBS. These clumps were cultured for various periods in suspension within bacteriological dishes precoated with 0.1% low melting temperature agarose in DMEM (Gibco), supplemented with 10-20% FCS (Biological Industries, Beit Haemek), 1 mM L-glutamine, 0.1 mM β-mercaptoethanol, 1% non-essential amino acid stock, 50 units/ml penicillin, 50 μg/ml streptomycin (all from Gibco Invitrogen Corporation products, USA) in the presence or absence of nicotinamide 10 mM (Sigma). In some experiments DMEM and FCS were replaced by 86% KO-DMEM and 14% KOSR or by Neurobasal medium supplemented by N2 (Gibco).
Differentiation into neural spheres was conducted according to the published protocol (Itsykson, P., et al. Derivation of neural precursors from human embryonic stem cells in the presence of noggin. Mol Cell Neurpsci 30, 24-36 (2005). Spheres were dissociated mechanically by trituration. Pigmented clusters of cells within EBs, differentiating 8-10 weeks were mechanically dissected by glass micropipettes or scalpel blades.
(§2) EBs were dissociated into smaller clusters mechanically with/without the aid of trypsin (0.025%, 3 mM EDTA in PBS) digestion. The small clusters of cells were plated on poly-D-lysine (30-70 kDa, 10 μg/ml; Sigma, St. Louis, Mo.) and laminin-coated (4 μg/ml; Sigma) glass coverslips and cultured for additional 3-5 weeks in the culture medium used for suspension culture of EBs or neural spheres. Differentiated cells within the outgrowth were fixed with 4% paraformaldehyde for 20 minutes at room temperature. Cell membranes were permeabilized with 0.2% Triton X100 (Sigma) in PBS for 5 minutes for immunostaining with ant-intracellular markers antibodies. The cells were incubated with the following primary antibodies: anti β-tubulin III (mouse monoclonal IgG2b, 1:2000, Sigma), anti human alphafetoprotein (mouse monoclonal IgG2a, 1:200, Sigma), anti human muscle actin (mouse monoclonal IgG1, 1:10, Dako) and anti human desmin (mouse monoclonal IgG1,κ, 1:10, Dako), anti-Pax6 (Developmental Studies Hybridoma Bank; mouse monoclonal IgG1, 1:100), anti-MITF (Lab Vision Corporation, Fremont, Calif.; mouse IgG1, 1:50), anti-RPE65 (Novus Biologicals, Littleton, Colo.; mouse IgG1, 1:300), anti-Bestrophin (Novus Biologicals, Littleton, Colo.; mouse IgG1, 1:150), anti-ZO-1 (Zymed Laboratories Inc., South San Francisco, Calif.; rabbit polyclonal, 1:10) and anti-CRALBP (kindly provided by John C. Saari, University of Washington, Seattle; rabbit polyclonal, 1:100).

In experiment [2] the test system is hESC-derived EBs. In words: EB formation in presence or absence of nicotinamide: morphology, size, cell number. As to conditions: for number of cells versus controls: comparable number of starting cells. Here is the method:
as §1

Experiment [3] concerns hESC-derived EBs. In words: Gene expression profile of EBs by affymetrix gene arrays.
Experiment [4] deals with hESC-derived EBs. Description: Immunocytochemical and RT-PCR analysis of EBs. Here is the method:
EBs that were developed 4 weeks in suspension culture in the presence and absence of nicotinamide (NA), were fixed in 4% paraformaldehyde at room temperature overnight. The EBs were then concentrated at the bottom of a centrifuge tube and embedded in agar. The agar blocks were dehydrated, and embedded in paraffin. 5-micron sections were immuno-stained with anti-human cytokeratin-8 and anti-α-fetoprotein (both at 1:50, monoclonal mouse IgG, DAKO). Primary antibody localization was performed using Picture™ plus kit (Zymed). For RT PCR analysis, total RNA was collected from EBs that were developed 4 weeks in suspension culture in the presence and absence of nicotinamide (NA). Total RNA was isolated using TRI REAGENT (Sigma) and converted into complementary cDNA with M-MLV reverse transcriptase (Promega). PCR was carried out using standard protocols with Taq DNA Polymerase (Promega). Amplification conditions were as follows: denaturation at 94° C. for 60 seconds, annealing at 55-60° C. for 60 seconds, and extension at 72° C. for 60 seconds. The number of cycles was 35 Primer sequences and lengths of amplified products were: […]

For experiment [5], the system named is hESC-derived EBs. Description: Neural precursor marker expression in EBs (FACS, indirect immunofluorescence). On the procedure:
as §2

Experiment [6] deals with hESC. Description: hESC culture on dishes pre-coated with different matrices; FACS marker expression. On the procedure:
Human embryonic fibroblasts derived from umbilical cord as described herein or foreskin fibroblasts were used as feeders. The feeders were plated in tissue culture dishes precoated with 1 μg/cm^2 human Fibronectin (BD Biosciences, Bedford, Mass.) or 100 μg/ml recombinant Gelatin (FibroGen, SF). Mitotic inactivation was carried out by incubating the feeders 2.5 hours with Mitomycin-C (Kyowa, Tokyo). KO DMEM (Gibco), X-Vivo 10 (Biowhittaker, Maryland), or Cellgro Stem Cell Growth Medium (CellGenix Freiburg, Germany) were used as the basic media. They were supplemented with TCH (1-2%; Protide Pharmaceuticals, St. Paul, Minn.) or Nutridoma-CS (2%; Roche, Germany) as serum substitutes. The media were supplemented with 2 mM glutamine (Hyclone, Utah) and non-essential amino acids (NEAA, 1%; Hyclone Utah). HESC were split weekly with Ca/Mg^++-free PBS supplemented with 0.05% EDTA.
FACS analysis of marker expression was performed on hESC after disaggregation using Ca/Mg^++-free PBS supplemented with 0.05% EDTA. The cells were then washed with FACS media consisting of PBS supplemented with 1% BSA and 0.05% sodium azide. The single cell suspension was stained with anti-SSEA4 (1:100, mouse monoclonal IgG3, Developmental Studies Hybridoma Bank (DHSB), Iowa City, Iowa), and anti-Tra-1-60 (1:20, monoclonal mouse IgM, gift from Prof. P. Andrews), anti-Tra-1-81 (1:100, monoclonal mouse IgM, Chemicon International), anti-human Oct 4 (mouse monoclonal IgG2b, 1:50, Santa Cruz), and anti-SSEA1 (1:100, Chemicon). Control hESC were stained with the respective isotype control antibodies. Primary antibodies were detected with a FITC-labeled goat anti-mouse Ig (1:100, Dako).

Experiment [7] relates to hESC. In words: Suspension culture of hESC in NBN2 medium. As to conditions: NBN2, in the presence of FGF2, 3 weeks. On the procedure: In the course of the routine passaging procedure, HESC colonies were dissociated with 0.05% of EDTA for 7-10 min at 37°, or mechanically with the aid of collagenase IV (1 mg/ml, 120 min at 37°). Cell dissociation was promoted by gentle blowing of the medium with a 1 ml pipette tip towards the hESC colonies. The cells/cell-clusters were re-suspended in NBN2 medium (Neurobasal, N2 supplement 1:100, glutamine 2 mM, 50 units/ml penicillin, 50 μg/ml streptomycin) supplemented with bFGF 20 ng/ml, noggin 250 ng/ml, activin 25-50 ng/ml, fibronectin and laminin 5 ng/ml each, gelatin 0.001%. The suspension may be strained though 30-50 micron mesh to remove big clumps and transferred into tissue culture dishes (Costar®, Corning Inc., Corning, N.Y., USA) at a density of ˜0.7-1.2×10^6 cells/ml. Dead cells and their fragments were gradually removed during media refreshment and small transparent cell aggregates emerged from the 3rd-5th days of suspension culture. The cells proliferated as free-floating tiny clusters of 20-50 cells. Aggregation and overgrowth of clusters was prevented by their daily trituration with a 1000 μl pipettor tip. Alternatively, every 7 days clusters were dissociated with Ca/Mg-free PBS supplemented with 3 mM EDTA and 0.06% trypsin and the single cells were resuspended in fresh medium. […]

Where [8] appears, read: 4 weeks suspension culture, presence vs absence of NA.
Where [9] appears, read: in the presence of NA, indirect immunofluorescence.
The mark [10] stands for this setting: Cellgro medium with 2% TCH, matrix coating.

“Also recorded” adds a separate entry of the source.

In the case of `NC(=O)c1cccnc1` [NA, nicotinamide], in experiment [1] (5 weeks of differentiation in the presence of NA), the “percentage of EBs that included clusters of pigmented cells” value (shortened to “percentage … of pigmented cells”) was 34%. Further, the “percentage … of pigmented cells” value in experiment [1] (6 weeks of differentiation in the presence of NA) was 59%. Further, the “percentage … of pigmented cells” value in experiment [1] (12 weeks of differentiation in the presence of NA) was 70%. Also, the “expression of the RPE markers RPE65 and MITF A” value in experiment [1] (Real Time PCR, 6 weeks, versus control EBs) is recorded as “significantly increased; also recorded: induction”. Moreover, the “percentage of cells within the EBs that were pigmented” value in experiment [1] (after 6 weeks of differentiation) is 9%. For the same molecule, the “development of cystic structures in EBs” value in experiment [2] (EBs cultured in the presence of RA and NA) is on record as “infrequent; also recorded: blocked the effects of RA”. For the same molecule, the “morphology of differentiated cells within EBs” value in experiment [2] (NA 10 mM) is reported as “acquired the morphology of neural precursor cells”. Further, in experiment [2] (NA treatment), the “prolonged culture of EBs” value is 12 weeks. Besides, in experiment [2] (after 2 weeks), the “number of cells versus controls” value was 5.4 times. Moreover, the “number of cells versus controls” value in experiment [2] (after 4 weeks) is on record as 33 times. Besides, in experiment [2] (chemically-defined medium (NBN2), 2-5 weeks), the “formation of cystic structures within EBs” value is “not observed”. For the same molecule, the “effect of RA on number of differentiated cells” value in experiment [2] (medium with RA supplemented with NA) is on record as “blocked”. Moreover, in experiment [2] (serum-free medium, two weeks of differentiation), the “size of EBs (maximal diameter) versus EBs without NA” value amounted to 1.7 times. For the same molecule, in experiment [2] (serum-supplemented medium, NA 10 mM), the “formation of cystic structures within EBs” value was “not formed; also recorded: not observed”. Moreover, in experiment [3] (setting [8]), the “number of genes down-regulated” value turned out to be 630 genes, the “number of genes up- or down-regulated by at least two-fold” value was 1072 genes and the “number of genes up-regulated” value was found to be 442 genes. Besides, the “expression of chordin-like-1 gene” value in experiment [3] (gene arrays, confirmed by RT PCR) is listed as “up-regulated”. In addition, in experiment [3] (gene arrays, 4 weeks), the “expression of LEFT A & B and PITX1” value was “down regulated”; the “expression of Wnt signaling pathway genes (Wnt4, Wnt 2B, FZD1, FZD2, FZD3, FZD10)” value is “induced”; the “expression of ZIC1” value was “remarkably up-regulated”; the “expression of cytokeratins 7, 18, 19, 23” value is “suppressed”. The “expression of α-fetoprotein and cytokeratin-8” value in experiment [3] (gene arrays, 4 weeks) was “suppressed”. Moreover, in experiment [4] (4 weeks in the presence of NA, immunocytochemistry), the “expression of cytokeratin-8 within EBs” value is on record as “not demonstrated; also recorded: only a few cells”. Besides, the “expression of α-fetoprotein within EBs” value in experiment [4] (differentiation in the presence of NA, immunocytochemistry and RT-PCR) was “not detected; also recorded: suppressed; also recorded: only a few cells”. In addition, the “percentage of cells expressing PSA-NCAM” value in experiment [5] (6 weeks in the presence of NA, FACS) is reported as 85.5%. Moreover, in experiment [5] (setting [9]), the “percentage of cells expressing nestin” value was determined as 58.3% and the “percentage of cells expressing β-tubulin III” value is on record as 67.8%.

For gelatin, in experiment [6] (setting [10]), the “percentage of SSEA-4+ cells” value turned out to be 97% and the “percentage of Tra-1-60+ cells” value is 92%. In addition, the “percentage of SSEA-4+ hESC” value in experiment [6] (foreskin feeder layer, KO DMEM+KO SR, plates precoated with the matrix) worked out at 91%.

B1: noggin: BMPs antagonist, 250 ng/ml (protein, UniProt Q13253 28-232, looked up)
Noggin: QHYLHIRPAPSDNLPLVDLIEHPDPIFDPKEKDLNETLLRSLLGGHYDPGFMATSPPEDRPGGGGGAAGGAEDLAELDQLLRQRPSGAMPSEIKGLEFSEGLAQGKKQRLSKKLRRKLQMWLWSQTFCPVLYAWNDLGSRFWPRYVKVGSCFSKRSCSVPEGMVCKPSKSVHLTVLRWRCQRRGGQRCGWIPIQYPIISECKCSC
On to B1, for which the “effect on survival/proliferation of hESC in suspension” value in experiment [7] (FIG. 23B) is given as “could promote survival/proliferation”.

B2: activin A: TGFβ superfamily factor, 25-50 ng/ml (protein, UniProt P08476 311-426, looked up)
Inhibin beta A chain: GLECDGKVNICCKKQFFVSFKDIGWNDWIIAPSGYHANYCEGECPSHIAGTSGSSLSFHSTVINHYRMRGHSPFANLKSCCVPTKLRPMSMLYYDDGQNIIKKDIQNMIVEECGCS
modifications: Inhibin beta A chain
notes: TGFβ superfamily factor, 25-50 ng/ml
On to B2, for which, in experiment [7] (FIG. 23A), the “effect on differentiation of hESC in suspension” value is “prevented differentiation”.

These data come from patent US9005965B2, “Stem cells culture systems” (Hadasit Medical Research Services & Development Limited, priority 2004, dated 2015).
